Source: patent US11020488B2, “Pyrroloquinolin compounds and methods of using same” (The Regents of the University of California, priority 2017, dated 2021)
Where two headings read alike, the source gives them in different places.

Key:
PANC-1 cell line [1] = test: cells; conditions: for fold decrease in PANC-1 potency (PP<) relative to makaluvamine J (9) / fold decrease in PANC-1 potency (PP<) relative to makaluvamine A (1): '<' in PP codes a decrease in potency; for PANC-1 cytotoxic potency (words): PANC-1 (set of b111: PANC-1 and/or OVCAR tumor cells)
Excerpt: The task of IC50 assessment for the natural products isolated in this study against the PANC-1 tumor cells line began immediately following the purification and characterization of each pyrrolo[4,3,2-de]quinoline obtained (FIG. 3). […] However, a sample of ammosamide B (17) was obtained from the NCI Molecular Targets Laboratory. Two additional clinically used compounds, etoposide and teniposide were also run in the assay.
The soft agar disk diffusion assay, IC50 determination, and clonogenic assay were performed as previously described.

OVCAR-5 [2] = test: IC50 determination against OVCAR-5 ovarian cancer cell line; assay type: cell-based, human; conditions: for IC50: OVCAR-5, values of the text
Protocol: The soft agar disk diffusion assay, IC50 determination, and clonogenic assay were performed as previously described [35].

OVCAR-3 = conditions: first value of OVCAR-3/-5 cell, refs [9], [38], NCI-DTP database; cited from earlier work
PANC-1 cell line [3] = conditions: cited from earlier work; for IC50: read-out: PANC-1 IC50, PANC-1, literature data, refs [25], [26], [30]
OVCAR-5 [4] = conditions: second value of OVCAR-3/-5 cell, ref [9], NCI-DTP database; cited from earlier work
KB xenografts = conditions: KB mouse model xenografts, ref [9]; cited from earlier work
HCT-116 cells = test: Clonogenic dose-response assay, continuous exposure; assay type: cell-based
Excerpt: FIG. 7 Evaluation of makaluvamine J (9) through clonogenic dose-response evaluation employing HCT-116 cells. Continuous exposure of the cells with 9 at different concentrations during periods of: 2 hr, 24 hr, or 120 hr. Efficacy is indicated when the surviving fraction is less than 0.1.
Accurate determination of the exposures required to achieve a useful in vivo therapeutic effect is the outcome being sought through clonogenic study. Illustrated here are data measuring the cytotoxic effect of makaluvamine J (9) at varying concentrations during continuous exposure. Other relevant data to be obtained in the future consists of: (a) repeating the clonogenic runs on makaluvamine acetate J (15), (b) obtaining the maximum tolerated dose (MTD) for both, and (c) assessing the pharmacokinetic behavior of these compounds measured in both plasma and tumors, (PANC-1 and OVC-5) at the MTD which will be tracked through by MS^2 data. The key measurement involved determining the required time-concentration profile to obtain a 90% kill (10% survival-S10) of tumor cells. […] At this juncture it appears that a chronic exposure for five days will be effective and the exact therapeutics regime will depend on the MTD determination data and future pharmacokinetic results.

[5] = read-out: PANC-1 IC50, PANC-1 pancreatic tumor cell line
[6] = Homo sapiens, PANC-1, read-out: PANC-1 IC50, PANC-1 pancreatic tumor cell line

## 8,15-O-diacetyl-8-hydroxy-5a,7,8a-trien-makaluvamine J
PANC-1 cell line [1]; ratio of PANC-1 IC50
  fold decrease in PANC-1 potency (PP<) relative to makaluvamine J (9): ~10 fold
PANC-1 cell line [1]; [5]
  IC50: 0.59 µM

## 9-N-acetyl makaluvamine B [9-N-acetyl makaluvamine B (14)]
PANC-1 cell line [1]; ratio of PANC-1 IC50
  fold decrease in PANC-1 potency (PP<) relative to makaluvamine A (1): > 200 fold
PANC-1 cell line [1]; [5]
  IC50: 91 µM

## 15-O-acetyl makaluvamine J [15-O-acetyl makaluvamine J (15)]
OVCAR-5 [2]
  IC50: 0.0086 µM
OVCAR-5 [2]; ratio of OVCAR-5 IC50
  fold increase in OVCAR-5 potency over makaluvamine J (9): 14 fold
PANC-1 cell line [1]
  PANC-1 cytotoxic potency (words): most potent IC50 values
PANC-1 cell line [1]; ratio of PANC-1 IC50
  fold decrease in PANC-1 potency (PP<) relative to makaluvamine J (9): 1.5 fold
PANC-1 cell line [1]; [5]
  IC50: 0.081 µM

## O=C1C(NCc2ccc(F)cc2)=CC2=NCCc3c[nH]c1c32 [FBA-TBQ (18), 7-(4-fluorobenzylamino)-1,3,4,8-tetrahydropyrrolo[4,3,2-de]quinolin-8(1H)-one, reference compound]
OVCAR-3
  IC50: 0.95 µM
PANC-1 cell line [3]
  cytotoxicity against PANC-1 cells (words): moderate cytotoxicity
  IC50: 0.11 µM
PANC-1 cell line [1]; comparison of PANC-1 IC50 with 9
  less potent than makaluvamine J (9) against PANC-1: ~50%

## CN1C(=O)c2cc(C(N)=O)nc3c(N)c(Cl)c(N)c1c23 [ammosamide B (17), ammosamide B, reference compound]
PANC-1 cell line [1]; [5]
  IC50: 26 µM

## CN1CCc2cn(C)c3c2C1=CC(=O)C3=O [damirone A (5), damirone A]
PANC-1 cell line [1]; [5]
  IC50: 160 µM

## CN1CCc2c[nH]c3c2C1=CC(=O)C3=O [damirone B (3), damirone B]
PANC-1 cell line [1]; [5]
  IC50: 19 µM

## COc1cc([C@@H]2c3cc4c(cc3[C@@H](O[C@@H]3O[C@@H]5CO[C@@H](C)O[C@H]5[C@H](O)[C@H]3O)[C@H]3COC(=O)[C@H]23)OCO4)cc(OC)c1O [etoposide, reference compound]
PANC-1 cell line [1]; [6]
  IC50: 0.39 µM

## Nc1ccn([C@@H]2O[C@H](CO)[C@@H](O)C2(F)F)c(=O)n1 [gemcitabine]
PANC-1 cell line [3]
  IC50: 7.2 µM

## CSc1c2c3c(n1C)C(=O)C(N)=C(Cl)C3=NCC2 [isobatzelline A]
PANC-1 cell line [3]; literature surveys
  cytotoxicity against PANC-1 cells (words): moderate cytotoxicity

## Cn1cc2c3c1C(=O)C(N)=C(Cl)C3=NCC2 [isobatzelline C (19), isobatzelline C]
PANC-1 cell line [3]; literature surveys, listed as 19
  cytotoxicity against PANC-1 cells (words): relatively inactive
PANC-1 cell line [3]; literature surveys, listed as isobatzelline C
  cytotoxicity against PANC-1 cells (words): moderate cytotoxicity
PANC-1 cell line [3]
  IC50: 10 µM

## CSc1c2ccnc3c2c(n1C)C(=O)C(N)=C3Cl [isobatzelline D]
PANC-1 cell line [3]; literature surveys
  cytotoxicity against PANC-1 cells (words): moderate cytotoxicity

## Cn1cc2c3c1C(=O)C(N)=CC3=NCC2 [makaluvamine A (1), makaluvamine A]
PANC-1 cell line [1]; [5]
  IC50: 0.45 µM

## C[N+]1=C2C=C(N)C(=O)c3[nH]cc(c32)CC1.[Cl-] [makaluvamine C (2), makaluvamine C]
OVCAR-3
  IC50: 0.24 µM
PANC-1 cell line [1]; ratio of PANC-1 IC50
  fold decrease in PANC-1 potency (PP<) relative to makaluvamine J (9): 13.5 fold
PANC-1 cell line [1]; [5]
  IC50: 0.73 µM

## Cn1cc2c3c1C(=O)C(N/C=C/c1ccc(O)cc1)=CC3=[N+](C)CC2 [makaluvamine G (8), makaluvamine G]
PANC-1 cell line [1]; [5]
  IC50: 6.2 µM

## Cn1cc2c3c1C(=O)C(N)=CC3=[N+](C)CC2.O=C([O-])C(F)(F)F [makaluvamine H (4), makaluvamine H]
OVCAR-5 [4]
  IC50: 0.1 µM
KB xenografts
  T/C % (tumor volume in treated/tumor volume in untreated): 38%
OVCAR-3
  IC50: 0.96 µM
PANC-1 cell line [1]; ratio of PANC-1 IC50
  fold decrease in PANC-1 potency (PP<) relative to makaluvamine A (1): 7.9 fold
PANC-1 cell line [1]; [5]
  IC50: 3.6 µM

## C[N+]1=C2C=C(NCCc3ccc(O)cc3)C(=O)c3[nH]cc(c32)CC1 [makaluvamine J (9), makaluvamine J]
HCT-116 cells; HCT-116, 2 h exposure, extrapolated
  2S10, concentration for 90% kill (10% survival): 3 µg/mL
HCT-116 cells; HCT-116, 24 h exposure
  24S10, concentration for 90% kill (10% survival): 400 ng/mL
HCT-116 cells; HCT-116, 120 h exposure
  120S10, concentration for 90% kill (10% survival): 30 ng/mL
HCT-116 cells; two hour dosing schedule
  toxicity to HCT-116 cells: Little toxicity
OVCAR-5 [2]
  IC50: 0.12 µM
PANC-1 cell line [1]
  PANC-1 cytotoxic potency (words): most potent
PANC-1 cell line [1]; listed as 9
  PANC-1 cytotoxic potency (words): most potent IC50 values
PANC-1 cell line [1]; [5]
  IC50: 0.054 µM

## Cn1cc2c3c1C(=O)C(NCCc1ccc(O)cc1)=CC3=NCC2 [makaluvamine K (10), makaluvamine K]
PANC-1 cell line [1]; ratio of PANC-1 IC50
  fold decrease in PANC-1 potency (PP<) relative to makaluvamine A (1): 1.2 fold
  fold decrease in PANC-1 potency (PP<) relative to makaluvamine J (9): 10.4 fold
PANC-1 cell line [1]; [5]
  IC50: 0.56 µM

## C[N+]1=C2C=C(N/C=C/c3ccc(O)cc3)C(=O)c3[nH]cc(c32)CC1.O=C([O-])C(F)(F)F [makaluvamine L (11), makaluvamine L]
PANC-1 cell line [1]; ratio of PANC-1 IC50
  fold decrease in PANC-1 potency (PP<) relative to makaluvamine J (9): 35.0 fold
PANC-1 cell line [1]; [5]
  IC50: 1.9 µM

## Cn1cc2c3c1C(=O)C(NCCc1ccc(O)cc1)=CC3=[N+](C)CC2.[Cl-] [makaluvamine P (12), makaluvamine P]
PANC-1 cell line [1]; ratio of PANC-1 IC50, '>' in PP codes an increase in potency
  fold increase in PANC-1 potency (PP>) relative to makaluvamine H (4): 12.3
PANC-1 cell line [1]; [5]
  IC50: 0.3 µM

## N=C1C(Cl)=C(N)C(=O)c2[nH]cc(C(O)CO)c21 (stereo not drawn) [secobatzelline A]
PANC-1 cell line [3]; literature surveys
  cytotoxicity against PANC-1 cells (words): moderate cytotoxicity

## COc1cc([C@@H]2c3cc4c(cc3[C@@H](O[C@@H]3O[C@@H]5CO[C@@H](c6cccs6)O[C@H]5[C@H](O)[C@H]3O)[C@H]3COC(=O)[C@H]23)OCO4)cc(OC)c1O [teniposide, reference compound]
PANC-1 cell line [1]; [6]
  IC50: 0.04 µM
PANC-1 cell line [1]; [5]
  IC50: 0.041 µM

## damirone D [damirone D (6)]
PANC-1 cell line [1]; [5]
  IC50: 3.4 µM

## makaluvamine D [makaluvamine D (7)]
PANC-1 cell line [1]; [5]
  IC50: 0.29 µM

## makaluvamine I [reference compound]
KB xenografts
  T/C % (tumor volume in treated/tumor volume in untreated): 34%
